Converted amounts (≈) assume the structure as drawn.
Key:
[1] = Selectivity index, ratio of CC50 for cytotoxicity against human Huh-7 cells to EC50 for Dengue virus 2 New Guinea C infected in human Huh-7 cells; format: toxicity, cell-based; conditions: read-out: Ratio CC50/EC50
[2] = Cytotoxicity against human Huh-7 cells assessed as reduction in cell viability incubated for 3 days by MTT assay; format: toxicity, cell-based; conditions: time 3 day
[3] = tested on: dengue virus type 2; experiment: Antiviral activity against Dengue virus 2 New Guinea C infected in human Huh-7 cells assessed as reduction in virus induced cytopathic effect incubated for 3 days by trypan blue staining based assay; format: functional, organism-based; conditions: Huh-7, 72 h
[4] = tested on: Human alphaherpesvirus 1; experiment: Antiviral activity against HSV-1 KOS infected in MDCK cells assessed as inhibition of viral replication measured after 24 hrs by plaque reduction assay; format: functional, organism-based; conditions: Human alphaherpesvirus 1, KOS
[5] = tested on: Influenza A virus; experiment: Antiviral activity against influenza A virus A/NWS/33 (H1N1) infected in MDCK cells; format: functional, organism-based
[6] = tested on: Human alphaherpesvirus 2; experiment: Antiviral activity against HSV-2 UW 268 infected in MDCK cells assessed as inhibition of viral replication measured after 24 hrs by plaque reduction assay; format: functional, organism-based; conditions: Human alphaherpesvirus 2, UW 268, MDCK
[7] = tested on: Human alphaherpesvirus 2; experiment: Antiviral activity against HSV-2 VR-734 infected in human HeLa cells; format: functional, organism-based; conditions: Human alphaherpesvirus 2, VR-734, HeLa
[8] = tested on: Human alphaherpesvirus 2; experiment: Antiviral activity against HSV-2 VR-734 infected in human NCI-H1299 cells; format: functional, organism-based; conditions: Human alphaherpesvirus 2, VR-734, NCI-H1299
[9] = tested on: Human alphaherpesvirus 2; experiment: Antiviral activity against HSV-2 VR-734 infected in African green monkey Vero cells assessed as inhibition of viral replication measured after 72 hrs by MTT assay; format: functional, organism-based; conditions: Human alphaherpesvirus 2, VR-734, Vero
[10] = Selectivity index, ratio of CC50 for cytotoxicity against African green monkey Vero cells to IC50 for antiviral activity against HSV-1 clinical isolate infected in African green monkey Vero cells; format: toxicity, cell-based; conditions: read-out: Ratio CC50/IC50
[11] = tested on: Human alphaherpesvirus 1; experiment: Antiviral activity against HSV-1 clinical isolate infected in African green monkey Vero cells incubated for 3 days by plaque reduction assay; format: functional, organism-based; conditions: Human alphaherpesvirus 1, Vero, 72 h
[12] = Selectivity index, ratio of CC50 for cytotoxicity against African green monkey Vero cells to IC50 for antiviral activity against HSV-1 15577 infected in African green monkey Vero cells; format: toxicity, cell-based; conditions: read-out: Ratio CC50/IC50
[13] = tested on: Human alphaherpesvirus 1; experiment: Antiviral activity against HSV-1 15577 infected in African green monkey Vero cells incubated for 3 days by plaque reduction assay; format: functional, organism-based; conditions: Human alphaherpesvirus 1, 15577, Vero, 72 h
[14] = Selectivity index, ratio of CC50 for cytotoxicity against African green monkey Vero cells to IC50 for antiviral activity against HSV-2 333 infected in African green monkey Vero cells; format: toxicity, cell-based; conditions: read-out: Ratio CC50/IC50
[15] = tested on: Human alphaherpesvirus 2; experiment: Antiviral activity against HSV-2 333 infected in African green monkey Vero cells incubated for 3 days by plaque reduction assay; format: functional, organism-based; conditions: Human alphaherpesvirus 2, 333, Vero, 72 h
[16] = Cytotoxicity against MDCK cells assessed as reduction in cell viability incubated for 72 hrs by MTT assay; format: toxicity, cell-based, Canis lupus familiaris; conditions: dog
[17] = tested on: Influenza A virus; experiment: Antiviral activity against influenza A virus A/PR/8/34 (H1N1) infected in MDCK cells preincubated 2 hrs followed by viral infection and measured after 24 hrs by MTT assay; format: functional, organism-based
[18] = tested on: Human immunodeficiency virus 1; experiment: Antiviral activity against HIV-1 GB8 infected in human JM1 cells; format: functional, organism-based; conditions: Human immunodeficiency virus 1, GB8, JM1
[19] = Cytotoxicity against human Huh7.5 cells infected with Hepatitis C virus assessed as reduction in cell viability; format: toxicity, cell-based, Huh-7.5
[20] = tested on: Hepatitis C virus; experiment: Antiviral activity against Hepatitis C virus genotype 2 J6/JFH1 infected in human Huh7.5 cells assessed as reduction in viral replication treated for 72 hrs by qRT-PCR analysis; format: functional, organism-based, Hepacivirus hominis; conditions: genotype 2 J6/JFH1, Huh7.5, 72 h
[21] = tested on: Hepatitis C virus; experiment: Antiviral activity against Hepatitis C virus infected in human Huh7.5 cells assessed as reduction in viral replication; format: functional, organism-based, Hepacivirus hominis
[22] = tested on: Hepatitis C virus; experiment: Antiviral activity against Hepatitis C virus genotype 1 Bart791 infected in human Huh7.5 cells assessed as reduction in viral replication treated for 72 hrs by qRT-PCR analysis; format: functional, organism-based, Hepacivirus hominis; conditions: genotype 1 Bart791, Huh7.5, 72 h
[23] = tested on: Hepatitis C virus; experiment: Antiviral activity against Hepatitis C virus genotype 2 Rluc-J6/JFH1 infected in human Huh7.5 cells assessed as reduction in viral replication treated for 72 hrs by qRT-PCR analysis; format: functional, organism-based, Hepacivirus hominis; conditions: genotype 2 Rluc-J6/JFH1, Huh7.5, 72 h
[24] = tested on: Human immunodeficiency virus 1; experiment: Antiviral activity against HIV-1 infected in human leucocytes assessed as inhibition of viral replication; format: functional; conditions: Human immunodeficiency virus 1, Leucocyte
[25] = tested on: Human immunodeficiency virus 1; experiment: Antiviral activity against HIV-1 infected in human macrophages assessed as inhibition of viral replication; format: functional; conditions: Human immunodeficiency virus 1, Macrophage

## COc1cc(/C(C#N)=C\c2cc3ccccc3s2)cc(OC)c1OC
[1]
  selectivity ratio: 263
[2]
  CC50 at 72 h: 1.9 µM
[3]
  EC50: 0.00722 µM

## Oc1ccc([C@@H]2c3c(O)cc(O)cc3[C@@H]3c4c(cc(O)cc4[C@H]2[C@@H]2c4cc(O)cc5c4[C@@H](c4cc(O)cc(O)c4[C@H]2c2ccc(O)cc2)[C@H](c2ccc(O)cc2)O5)O[C@H]3c2ccc(O)cc2)cc1
[4]
  IC50: 2.8 µM
[5]
  IC50: 6.4 µM
[6]
  IC50: 6.4 µM

## O=C1C=C[C@]23[C@H](C1)Oc1cccc4c1[C@H]2[C@H](c1cc(O)cc2c1[C@@H]4[C@H](c1ccc(O)cc1)O2)[C@@H](c1cc(O)cc2c1[C@@H](c1cc(O)cc(O)c1)[C@H](c1ccc(O)cc1)O2)[C@@H]3c1ccc(O)cc1
[4]
  IC50: 2.8 µM
[6]
  IC50: 6.8 µM

## Oc1ccc([C@H]2c3c(O)cc(O)cc3[C@@H]3c4c(cc(O)cc4[C@H]4[C@@H](c5ccc(O)cc5)c5c(O)cc(O)cc5[C@H]5c6c(cc(O)cc6[C@H]24)O[C@@H]5c2ccc(O)cc2)O[C@H]3c2ccc(O)cc2)cc1
[7]
  IC50: 3.2 µM
[8]
  IC50: 3.2 µM
[9]
  IC50: 3.2 µM

## CC1=C[C@H](c2c(O)cc(/C=C/c3ccc(O)cc3O)cc2O)[C@@H](C(=O)c2ccc(O)cc2O)[C@H](c2ccc(O)cc2O)C1
[10]
  selectivity ratio: 55
[11]
  IC50: 1.5 µg/mL (≈ 2.57 µM)
[12]
  selectivity ratio: 37
[13]
  IC50: 2.2 µg/mL (≈ 3.78 µM)
[14]
  selectivity ratio: 32
[15]
  IC50: 2.5 µg/mL (≈ 4.29 µM)

## O=C(O)c1ccccc1/N=N/c1ccc(O)cc1O
[16]
  CC50 at 72 h: > 100 µg/mL
[17]
  EC50: 7.28 µg/mL (≈ 28.2 µM)

## O=S(=O)(O)c1cc(N=C=S)ccc1CCc1ccc(N=C=S)cc1S(=O)(=O)O
[18]
  IC50: 40 µM

## Oc1ccc(C2Oc3ccc(/C=C/c4cc(O)cc5c4C(c4cc(O)cc(O)c4)C(c4ccc(O)cc4)O5)cc3C2c2cc(O)cc3c2C(c2cc(O)cc(O)c2)C(c2ccc(O)cc2)O3)cc1 (configuration not stated)
[19]
  CC50: > 10 µM
[20]
  EC50: 0.003 µM
[21]
  EC50: 0.006 µM
[22]
  EC50: 0.001 µM
[23]
  EC50: 0.003 µM

## CC(=O)CC(=O)Nc1ccc(/C=C/c2ccc(-n3nccc3O)cc2S(=O)(=O)O)c(S(=O)(=O)O)c1
[24]
  EC90: 0.5 µM
[25]
  EC90: 0.5 µM

From ChEMBL document CHEMBL5233255, “Natural and nature-inspired stilbenoids as antiviral agents” (Eur J Med Chem, 2020)
